Earlier results as cited in US20190343122A1, “IMPROVED INSECT CONTROL STRATEGIES UTILIZING PHEROMONES AND RNAI” (Provivi, Inc., priority 2016, published 2019).

How the values were obtained:
aphids = details: in vivo
E. heros = details: female E. heros
target genes of pests = details: Noctuidae Spodoptera exigua

For `O=Cc1ccccc1` [benzaldehyde], the “attractiveness of an oviposition substrate” value (mated H. armigera) is listed as “significantly increase the attractiveness”.
In the case of `CNC(=O)Oc1cccc2ccccc12` [Sevin, carbaryl], the effectiveness against aphids (aphids) is listed as “not effective against many aphids”.
In the case of `CCCC(C)CCCC(C)CCCC(C)C(=O)OC` (centres unmarked) [TMTD, methyl 2,6,10-trimethyltridecanoate], the attraction to lures (E. heros) is given as “attracted”.
In the case of `CCCCCCC=O` [Heptanal], the “attractiveness of an oviposition substrate” value (mated H. armigera) is given as “significantly increase the attractiveness”.
For PGCP, the Larval mortality (target genes of pests) is listed as “Larval mortality increased”.
